Results from paper PMC5015106 (Scientific Reports, 2016).
Converted amounts (≈) assume the structure as drawn. Numbered stars: 1 amine (or outer) side, 2 acyl side, 3 side chain; on linkers, the order of the positions; unused ones are H or OH. Bridge positions count the residues as written; N and C are the ends. Square brackets hold non-standard residues; d marks the D form. Peptide text beside a SMILES is read from it. ξ: configuration not given here. X1 = O=C([C@H](CCc1ccc(O)c(Cl)c1)N[*:1])[*:2]; NMehTyr = CN[C@@H](CCc1ccc(O)cc1)C(=O)O; Nle(6-Ph) = N[C@@H](CCCCc1ccccc1)C(=O)O; d(aIle) = CC[C@H](C)[C@@H](N)C(=O)O; hTyr = N[C@@H](CCc1ccc(O)cc1)C(=O)O; hhPhe = N[C@@H](CCCc1ccccc1)C(=O)O; aIle = CC[C@@H](C)[C@H](N)C(=O)O; hPhe = N[C@@H](CCc1ccccc1)C(=O)O; Ile(3ξ) = CCC(C)[C@H](N)C(=O)O; NMeN = CN[C@@H](CC(N)=O)C(=O)O; NMeS = CN[C@@H](CO)C(=O)O; NMeA = CN[C@@H](C)C(=O)O; CO = O=C([*:1])[*:2]; Sar = CNCC(=O)O

Target: T1, TAFIa (Homo sapiens, UniProt Q96IY4)
T1 construct: purchased American Diagnostica Pr; No. 874
T1 sequence (Q96IY4 115-423): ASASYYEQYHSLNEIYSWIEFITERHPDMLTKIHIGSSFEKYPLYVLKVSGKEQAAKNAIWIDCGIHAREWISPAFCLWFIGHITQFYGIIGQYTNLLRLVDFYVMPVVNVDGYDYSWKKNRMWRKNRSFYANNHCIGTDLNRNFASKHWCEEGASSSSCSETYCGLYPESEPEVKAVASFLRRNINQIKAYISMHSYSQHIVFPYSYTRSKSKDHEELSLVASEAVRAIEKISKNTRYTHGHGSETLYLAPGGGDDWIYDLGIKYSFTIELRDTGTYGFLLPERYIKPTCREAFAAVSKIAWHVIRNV
Test: biochemical
Details: not given

Compound | IC50
CC[C@H](C)[C@@H]1NC(=O)[C@H](CCc2ccc(O)cc2)N(C)C(=O)[C@H](CCc2ccc(O)cc2)NC(=O)[C@H](C(C)C)NC(=O)[C@H](NC(=O)N[C@@H](CCCNC(=N)N)C(=O)O)CCCCNC1=O [Compound 16, Anabaenopeptin 908] ({Arg-CO}-[dK]V[hTyr][NMehTyr]I; lactam 1-C) | 1.8 nM
CC[C@H](C)[C@@H]1NC(=O)[C@H](CCc2ccc(O)cc2)N(C)C(=O)[C@H](CCc2ccc(O)cc2)NC(=O)[C@H](C(C)C)NC(=O)[C@H](NC(=O)N[C@@H](Cc2ccc(O)cc2)C(=O)O)CCCCNC1=O [Compound 15, Anabaenopeptine 915] ({Tyr-CO}-[dK]V[hTyr][NMehTyr]I; lactam 1-C) | 530 nM
CCC(C)[C@@H]1NC(=O)[C@H](NC(=O)N[C@@H](CCCCN)C(=O)O)CCCCNC(=O)[C@H](Cc2ccccc2)NC(=O)[C@H](CC(N)=O)N(C)C(=O)[C@H](CCCc2ccccc2)NC1=O (some centres unmarked) [Compound 4, Anabaenopeptin SA4] ({Lys-CO}-[dK][Ile(3ξ)][hhPhe][NMeN]F; lactam 1-C) | 3.4 nM

Same assay, conditions: enzymatic inhibition assay, duplicate determination; read-out: IC50 in nM against TAFIa

Compound | IC50
Anabaenopeptin SA5 [Compound 6] | 790 nM
Anabaenopeptin SA12 [Compound 12] | 4300 nM
CC[C@H](C)[C@H]1NC(=O)[C@H](NC(=O)N[C@@H](CCCCN)C(=O)O)CCCCNC(=O)[C@H](Cc2ccccc2)NC(=O)[C@H](C)N(C)C(=O)[C@H](CCc2ccc(O)cc2)NC1=O [Compound 17, Anabaenopeptin SA3] ({Lys-CO}-[dK][d(aIle)][hTyr][NMeA]F; lactam 1-C) | 2.1 nM
CC(C)[C@H]1NC(=O)[C@H](NC(=O)N[C@@H](Cc2ccccc2)C(=O)O)CCCCNC(=O)[C@H](CCc2ccc(O)c(Cl)c2)NC(=O)CN(C)C(=O)[C@H](CCc2ccc(O)cc2)NC1=O [Compound 10, Anabaenopeptin SA10] ({Phe-CO}-[dK][dV][hTyr][Sar][X1]; lactam 1-C) | 7000 nM
CC[C@@H](C)[C@H](NC(=O)N[C@@H]1CCCCNC(=O)[C@H](Cc2ccccc2)NC(=O)[C@H](CC(N)=O)N(C)C(=O)[C@H](CCCCc2ccccc2)NC(=O)[C@@H]([C@@H](C)CC)NC1=O)C(=O)O [Compound 8, Anabaenopeptin SA8] ({aIle-CO}-[dK][d(aIle)][Nle(6-Ph)][NMeN]F; lactam 1-C) | 4800 nM
CC(C)[C@@H]1NC(=O)[C@H](NC(=O)N[C@@H](Cc2ccc(O)cc2)C(=O)O)CCCCNC(=O)[C@H](Cc2ccccc2)NC(=O)[C@H](C)N(C)C(=O)[C@H](CCc2ccc(O)cc2)NC1=O [Compound 13, Anabaenopeptin A] ({Tyr-CO}-[dK]V[hTyr][NMeA]F; lactam 1-C) | 440 nM
CC[C@@H](C)C1NC(=O)[C@H](NC(=O)N[C@@H](Cc2ccccc2)C(=O)O)CCCCNC(=O)[C@H](CCc2ccccc2)NC(=O)CN(C)C(=O)[C@H](CCc2ccc(O)c(Cl)c2)NC1=O (some centres unmarked) [Compound 9, Anabaenopeptin SA9] | 31000 nM
CC(C)[C@H]1NC(=O)[C@H](NC(=O)N[C@@H](CCCN=C(N)N)C(=O)O)CCCCNC(=O)[C@H](Cc2ccccc2)NC(=O)[C@H](CO)N(C)C(=O)[C@H](CCc2ccc(O)cc2)NC1=O [Compound 19, Anabaenopeptin SA2] ({Arg-CO}-[dK][dV][hTyr][NMeS]F; lactam 1-C) | 16 nM
CC(C)[C@H]1NC(=O)[C@H](NC(=O)N[C@@H](Cc2ccc(O)cc2)C(=O)O)CCCCNC(=O)[C@H](Cc2ccccc2)NC(=O)[C@H](CO)N(C)C(=O)[C@H](CCc2ccc(O)cc2)NC1=O [Compound 20, Anabaenopeptin SA13] ({Tyr-CO}-[dK][dV][hTyr][NMeS]F; lactam 1-C) | 2500 nM
Anabaenopeptin SA7 [Compound 7] | 13000 nM
CC[C@@H](C)[C@H](NC(=O)N[C@@H]1CCCCNC(=O)[C@H](Cc2ccccc2)NC(=O)[C@H](CC(N)=O)N(C)C(=O)[C@H](CCc2ccccc2)NC(=O)[C@H]([C@H](C)CC)NC1=O)C(=O)O [Compound 18, Anabaenopeptin SA6] ({aIle-CO}-[dK][aIle][hPhe][NMeN]F; lactam 1-C) | 51000 nM
Anabaenopeptin SA1 [Compound 5] | 2.2 nM
CC[C@@H](C)C1NC(=O)[C@H](NC(=O)N[C@@H](Cc2ccccc2)C(=O)O)CCCCNC(=O)[C@H](CCc2ccc(O)c(Cl)c2)NC(=O)CN(C)C(=O)[C@H](CCc2ccc(O)cc2)NC1=O (some centres unmarked) [Compound 11, Anabaenopeptin SA11] | 15000 nM

Target: carboxypeptidase A
Test: not given
Details: cited from earlier work

Compound | IC50 carboxypeptidase A
CC[C@H](C)[C@@H]1NC(=O)[C@H](NC(=O)N[C@@H](CCCNC(=N)N)C(=O)O)CCCCNC(=O)[C@H]([C@@H](C)CC)NC(=O)[C@H](CCc2ccc(O)cc2)N(C)C(=O)[C@H](CCc2ccc(O)cc2)NC1=O [anabaenopeptin H] ({Arg-CO}-[dK]I[hTyr][NMehTyr]I; lactam 1-C) | 3.4 µg/mL (≈ 3.68 µM)

Same assay, conditions: in words; cited from earlier work

Compound | inhibitory concentrations carboxypeptidase A
CC[C@H](C)[C@H](NC(=O)N[C@@H]1CCCCNC(=O)[C@H](CC(C)C)NC(=O)[C@H](C)N(C)C(=O)[C@H](CCc2ccc(O)cc2)NC(=O)[C@H](C(C)C)NC1=O)C(=O)O [anabaenopeptin I] ({Ile-CO}-[dK]V[hTyr][NMeA]L; lactam 1-C) | nanomolar
CC[C@H](C)[C@H](NC(=O)N[C@@H]1CCCCNC(=O)[C@H](Cc2ccccc2)NC(=O)[C@H](C)N(C)C(=O)[C@H](CCc2ccc(O)cc2)NC(=O)[C@H](C(C)C)NC1=O)C(=O)O [anabaenopeptin J] ({Ile-CO}-[dK]V[hTyr][NMeA]F; lactam 1-C) | nanomolar
CC[C@H](C)[C@@H]1NC(=O)[C@H](NC(=O)N[C@@H](Cc2ccc(O)cc2)C(=O)O)CCCCNC(=O)[C@H]([C@@H](C)CC)NC(=O)[C@H](CCc2ccc(O)cc2)N(C)C(=O)[C@H](CCc2ccc(O)cc2)NC1=O [anabaenopeptin G] ({Tyr-CO}-[dK]I[hTyr][NMehTyr]I; lactam 1-C) | nanomolar
